Assay results reported in PMC4184702 (Pharmacology Research & Perspectives, 2014).
“Also recorded” adds a separate entry of the source.

Experiments:
[1] = tested on: NMDA: N-methyl-D-aspartate receptor; assay: PDSP primary binding, NMDA; settings: 10 µM, n = 4
Protocol: (§1) For experimental details, please refer to the Psychoactive Drug Screening Program (PDSP) web site http://pdsp.med.unc.edu/.
(§2) ^a The default concentration for primary binding experiments is 10 µM (n = 4). ^b Negative inhibition represents a stimulation of binding. ^c BZPR: Benzodiazepine Receptors (rat brain site). ^d DOR: Delta Opioid Receptor; KOR: Kappa Opioid Receptor; MOR: Mu Opioid Receptor. ^e DAT: Dopamine Transporter; NET: Norepinephrine Transporter; SERT: Serotonin Transporter. ^f NMDA: N-methyl-D-aspartate receptor.

5-HT3 = molecular target: T1, 5-HT3 (Homo sapiens, UniProt P46098); assay: PDSP primary binding, 5-HT3; settings: n = 4, read-out: Inhibition (primary binding competition efficacy), 5-HT3
T1 construct: purchased NIMH Psychoactive Drug Screening Program (PDSP)
Protocol: as §1, §2

human α7-nAChRs = molecular target: T2, human α7-nAChRs (Homo sapiens, UniProt P36544); assay: Whole-cell current recording, SH-EP1-hα7 cells; type: cell-based; settings: 1 μmol/L
T2 construct: expressed in transfected cells; host or cells: SH-EP1 human epithelial cells (SH-EP1-hα7)
Protocol: Glass microelectrodes made with 3–5 MΩ resistance between pipette and extracellular solutions were used to obtain >1 GΩ seals on the cell surface just prior to conversion into standard whole-cell current recording mode by applying suction to the pipette. After allowing exchange between the pipette solution and the cytosol for 5 10 min, cells with attached pipettes were lifted gently from the bottom of the culture dish via micromanipulation of the pipette to improve kinetics of solution exchange around the cell. Access resistance (Ra) was measured and accepted if it was less than 20 MΩ. Pipette and whole-cell capacitance were both minimized, and series resistance was compensated routinely to 80%. Cells were voltage-clamped at −60 mV, and inward currents induced by indicated nicotinic agonists at the specified concentrations were measured (200B amplifier; Molecular Devices, Sunnyvale, CA). […] Data acquisition and analyses were conducted using pClamp9.2 (Molecular Devices), and results were plotted by using Origin 5.0 (OriginLab Corp., North Hampton, MA). All experiments were performed at room temperature (22 ± 1°C).
The external solution for SH-EP1 cell recording contained 120 mmol/L NaCl, 5 mmol/L KCl, 2 mmol/L MgCl2, 2 mmol/L CaCl2, 25 mmol/L D-glucose, and 10 mmol/L HEPES<< HEPES >>, pH 7.4 (Tris-base). For conventional whole-cell recording, the pipette solution contained 110 mmol/L Tris-phosphate dibasic, 28 mmol/L Tris-base, 11 mmol/L EGTA<< EGTA >>, 2 mmol/L MgCl2, 0.5 mmol/L CaCl2, and 4 mmol/L Na-ATP at pH 7.3. Drugs (standard compounds were obtained from Sigma Chemical, St. Louis, MO) were delivered to the recorded cell by a computer-controlled perfusion system (SF-77B Perfusion Fast Step, Warner Instruments Incorporated, A Harvard Bioscience Company, Holliston, MA), allowing the recorded cell can be completely surrounded by the applied drug within 20 msec. The interval between drug applications (2 min) was optimized specifically to ensure stability of nAChR responsiveness (without functional rundown).

H2 histamine receptor = molecular target: T3, H2 histamine receptor (Homo sapiens, UniProt P25021); assay: PDSP primary binding, H2; settings: n = 4, read-out: Inhibition (primary binding competition efficacy), H2
T3 construct: purchased NIMH Psychoactive Drug Screening Program (PDSP)
Protocol: as §1, §2

5-HT5A = molecular target: T4, 5-HT5A (Homo sapiens, UniProt P47898); assay: PDSP primary binding, 5-HT5A; settings: n = 4, read-out: Inhibition (primary binding competition efficacy), 5-HT5A
T4 construct: purchased NIMH Psychoactive Drug Screening Program (PDSP)
Protocol: as §1, §2

MOR: Mu Opioid Receptor = molecular target: T5, MOR: Mu Opioid Receptor (Homo sapiens, UniProt P35372); assay: PDSP primary binding, MOR; settings: n = 4, read-out: Inhibition (primary binding competition efficacy), MOR
T5 construct: purchased NIMH Psychoactive Drug Screening Program (PDSP)
Protocol: as §1, §2

CYP3A = CYP3A inhibition, HLM, midazolam substrate; type: in vitro ADME, human; settings: 1.0E-05 M
From the text: Supplement prp20002-e00026-sd1.doc, table 3: Table 3.

α2C adrenergic receptor = molecular target: T6, α2C adrenergic receptor (Homo sapiens, UniProt P18825); assay: PDSP primary binding, α2C; settings: n = 4, read-out: Inhibition (primary binding competition efficacy), α2C
T6 construct: purchased NIMH Psychoactive Drug Screening Program (PDSP)
Protocol: as §1, §2

[2] = Metabolic stability, cryopreserved hepatocytes, mouse; type: in vitro ADME; settings: CD-1, 1.0E-06 M, 2 h
[3] = Bacterial cytotoxicity, strain TA100; type: cell-based; settings: Salmonella typhimurium, bacterial tester strain TA100 without S9, read-out: Cytotoxicity (% of Control Values)
From the text: (§3) Supplement prp20002-e00026-sd1.doc, table 4: Table 4.

5-HT2C = molecular target: T7, 5-HT2C (Homo sapiens, UniProt P28335); assay: PDSP primary binding, 5-HT2C; settings: n = 4, read-out: Inhibition (primary binding competition efficacy), 5-HT2C
T7 construct: purchased NIMH Psychoactive Drug Screening Program (PDSP)
Protocol: as §1, §2

β2 adrenergic receptor = molecular target: T8, β2 adrenergic receptor (Homo sapiens, UniProt P07550); assay: PDSP primary binding, β2; settings: n = 4, read-out: Inhibition (primary binding competition efficacy), β2
T8 construct: purchased NIMH Psychoactive Drug Screening Program (PDSP)
Protocol: as §1, §2

D4 dopamine receptor = molecular target: T9, D4 dopamine receptor (Homo sapiens, UniProt P21917); assay: PDSP primary binding, D4; settings: n = 4, read-out: Inhibition (primary binding competition efficacy), D4
T9 construct: purchased NIMH Psychoactive Drug Screening Program (PDSP)
Protocol: as §1, §2

σ 2 sigma receptor = assay: PDSP primary binding, σ 2; settings: 10 µM, n = 4
Protocol: as §1, §2

CB2 = molecular target: T10, CB2 (Homo sapiens, UniProt P34972); assay: PDSP primary binding, CB2; settings: n = 4, read-out: Inhibition (primary binding competition efficacy), CB2
T10 construct: purchased NIMH Psychoactive Drug Screening Program (PDSP)
Protocol: as §1, §2

5-HT4 = molecular target: T11, 5-HT4 (Homo sapiens, UniProt Q13639); assay: PDSP primary binding, 5-HT4; settings: n = 4, read-out: Inhibition (primary binding competition efficacy), 5-HT4
T11 construct: purchased NIMH Psychoactive Drug Screening Program (PDSP)
Protocol: as §1, §2

5-HT1E = molecular target: T12, 5-HT1E (Homo sapiens, UniProt P28566); assay: PDSP primary binding, 5-HT1E; settings: n = 4, read-out: Inhibition (primary binding competition efficacy), 5-HT1E
T12 construct: purchased NIMH Psychoactive Drug Screening Program (PDSP)
Protocol: as §1, §2

[4] = Bacterial cytotoxicity, strain TA1535; type: cell-based; settings: Salmonella typhimurium, bacterial tester strain TA1535 without S9, read-out: Cytotoxicity (% of Control Values)
From the text: as §3

T2 sequence (P36544 23-502): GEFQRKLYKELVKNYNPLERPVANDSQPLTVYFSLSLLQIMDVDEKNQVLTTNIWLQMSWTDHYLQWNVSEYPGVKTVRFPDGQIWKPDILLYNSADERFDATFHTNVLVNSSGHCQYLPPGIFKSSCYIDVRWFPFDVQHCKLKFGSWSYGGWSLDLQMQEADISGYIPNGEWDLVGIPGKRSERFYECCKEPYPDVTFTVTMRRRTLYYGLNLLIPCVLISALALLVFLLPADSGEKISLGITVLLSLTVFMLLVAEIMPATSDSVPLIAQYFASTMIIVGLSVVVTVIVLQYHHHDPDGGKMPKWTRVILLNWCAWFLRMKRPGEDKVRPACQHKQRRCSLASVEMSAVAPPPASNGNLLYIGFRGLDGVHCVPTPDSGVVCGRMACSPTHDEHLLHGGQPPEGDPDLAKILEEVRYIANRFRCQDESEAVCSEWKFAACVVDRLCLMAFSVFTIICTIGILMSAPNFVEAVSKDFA
T5 sequence (P35372 whole entry): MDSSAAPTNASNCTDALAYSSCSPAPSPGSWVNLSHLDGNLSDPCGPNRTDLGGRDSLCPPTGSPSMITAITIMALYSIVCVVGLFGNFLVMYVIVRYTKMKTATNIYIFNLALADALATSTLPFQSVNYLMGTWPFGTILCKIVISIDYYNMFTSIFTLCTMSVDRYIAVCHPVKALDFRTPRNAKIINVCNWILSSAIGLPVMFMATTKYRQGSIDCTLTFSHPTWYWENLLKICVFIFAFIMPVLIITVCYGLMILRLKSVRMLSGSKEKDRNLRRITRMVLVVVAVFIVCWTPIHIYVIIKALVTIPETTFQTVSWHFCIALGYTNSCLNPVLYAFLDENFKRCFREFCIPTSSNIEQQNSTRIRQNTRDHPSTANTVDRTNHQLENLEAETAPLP
T3 sequence (P25021 whole entry): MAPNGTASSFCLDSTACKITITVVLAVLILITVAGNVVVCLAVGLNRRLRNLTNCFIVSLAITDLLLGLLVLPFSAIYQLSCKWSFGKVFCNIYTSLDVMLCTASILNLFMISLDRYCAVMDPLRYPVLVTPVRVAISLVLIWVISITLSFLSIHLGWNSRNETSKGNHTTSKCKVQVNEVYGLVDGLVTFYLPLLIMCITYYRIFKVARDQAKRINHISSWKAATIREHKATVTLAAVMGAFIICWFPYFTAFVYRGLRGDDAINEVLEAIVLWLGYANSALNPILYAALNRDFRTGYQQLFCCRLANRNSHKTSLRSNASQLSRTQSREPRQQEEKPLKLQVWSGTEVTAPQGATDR
T11 sequence (Q13639 whole entry): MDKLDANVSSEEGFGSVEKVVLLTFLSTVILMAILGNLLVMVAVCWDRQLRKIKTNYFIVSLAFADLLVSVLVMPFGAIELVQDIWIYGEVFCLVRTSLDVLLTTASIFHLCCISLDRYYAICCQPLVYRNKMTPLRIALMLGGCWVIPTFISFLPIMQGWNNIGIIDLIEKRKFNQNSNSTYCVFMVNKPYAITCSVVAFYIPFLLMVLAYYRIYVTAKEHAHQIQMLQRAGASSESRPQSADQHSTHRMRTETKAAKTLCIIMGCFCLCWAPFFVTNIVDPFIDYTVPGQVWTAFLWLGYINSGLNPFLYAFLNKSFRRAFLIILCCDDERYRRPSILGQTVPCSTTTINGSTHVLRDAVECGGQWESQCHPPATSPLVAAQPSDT
T9 sequence (P21917 whole entry): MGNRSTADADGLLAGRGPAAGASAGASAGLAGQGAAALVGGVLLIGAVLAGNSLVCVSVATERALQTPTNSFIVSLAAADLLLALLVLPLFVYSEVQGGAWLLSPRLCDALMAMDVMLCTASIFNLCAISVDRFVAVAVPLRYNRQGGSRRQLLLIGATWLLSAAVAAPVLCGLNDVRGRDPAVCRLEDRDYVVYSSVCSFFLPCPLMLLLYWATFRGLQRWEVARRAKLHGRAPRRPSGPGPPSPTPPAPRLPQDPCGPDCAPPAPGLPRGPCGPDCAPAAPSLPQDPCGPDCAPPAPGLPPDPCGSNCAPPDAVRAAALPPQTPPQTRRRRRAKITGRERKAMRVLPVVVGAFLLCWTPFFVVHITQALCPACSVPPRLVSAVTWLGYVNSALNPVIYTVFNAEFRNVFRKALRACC
T8 sequence (P07550 whole entry): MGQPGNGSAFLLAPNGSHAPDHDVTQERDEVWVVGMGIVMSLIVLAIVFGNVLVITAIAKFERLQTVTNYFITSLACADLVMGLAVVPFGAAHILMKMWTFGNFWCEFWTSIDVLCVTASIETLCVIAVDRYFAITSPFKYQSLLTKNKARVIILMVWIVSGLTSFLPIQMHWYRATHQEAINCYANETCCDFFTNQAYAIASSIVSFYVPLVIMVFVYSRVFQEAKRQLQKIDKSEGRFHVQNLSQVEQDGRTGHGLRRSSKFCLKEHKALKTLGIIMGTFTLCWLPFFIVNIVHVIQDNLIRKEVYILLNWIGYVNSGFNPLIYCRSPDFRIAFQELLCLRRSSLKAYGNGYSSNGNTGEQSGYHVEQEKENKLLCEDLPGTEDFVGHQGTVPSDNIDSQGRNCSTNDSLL
T1 sequence (P46098 24-478): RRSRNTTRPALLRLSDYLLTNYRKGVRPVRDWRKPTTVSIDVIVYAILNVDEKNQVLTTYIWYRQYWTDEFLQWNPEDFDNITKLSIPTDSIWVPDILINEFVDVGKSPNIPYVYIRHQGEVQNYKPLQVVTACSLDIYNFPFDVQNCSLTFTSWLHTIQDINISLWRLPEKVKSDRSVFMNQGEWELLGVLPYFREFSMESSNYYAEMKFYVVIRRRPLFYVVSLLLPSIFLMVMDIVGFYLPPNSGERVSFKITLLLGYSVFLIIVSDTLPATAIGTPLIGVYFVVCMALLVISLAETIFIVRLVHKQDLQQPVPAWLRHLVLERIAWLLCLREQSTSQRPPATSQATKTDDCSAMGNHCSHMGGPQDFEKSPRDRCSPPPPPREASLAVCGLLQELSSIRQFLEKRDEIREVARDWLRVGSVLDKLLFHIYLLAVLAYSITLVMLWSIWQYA
T4 sequence (P47898 whole entry): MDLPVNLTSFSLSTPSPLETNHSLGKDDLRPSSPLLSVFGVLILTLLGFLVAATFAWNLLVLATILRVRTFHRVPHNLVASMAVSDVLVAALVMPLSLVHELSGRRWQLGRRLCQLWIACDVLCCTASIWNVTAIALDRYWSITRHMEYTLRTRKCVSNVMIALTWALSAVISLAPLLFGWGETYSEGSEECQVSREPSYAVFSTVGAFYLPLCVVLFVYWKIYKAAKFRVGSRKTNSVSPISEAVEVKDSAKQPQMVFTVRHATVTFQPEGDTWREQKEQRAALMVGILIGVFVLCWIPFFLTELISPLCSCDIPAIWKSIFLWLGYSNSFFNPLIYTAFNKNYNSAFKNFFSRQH
T7 sequence (P28335 33-458): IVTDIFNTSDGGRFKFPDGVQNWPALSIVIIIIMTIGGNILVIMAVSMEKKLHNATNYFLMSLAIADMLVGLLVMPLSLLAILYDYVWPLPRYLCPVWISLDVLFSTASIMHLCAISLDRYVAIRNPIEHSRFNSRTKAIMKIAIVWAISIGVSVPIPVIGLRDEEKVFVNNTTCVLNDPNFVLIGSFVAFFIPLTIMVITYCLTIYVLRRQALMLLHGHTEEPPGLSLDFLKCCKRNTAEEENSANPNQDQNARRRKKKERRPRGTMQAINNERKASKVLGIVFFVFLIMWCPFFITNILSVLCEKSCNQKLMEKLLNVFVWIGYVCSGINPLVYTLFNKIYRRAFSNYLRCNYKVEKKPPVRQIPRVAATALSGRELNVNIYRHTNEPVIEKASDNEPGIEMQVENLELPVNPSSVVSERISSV
T6 sequence (P18825 whole entry): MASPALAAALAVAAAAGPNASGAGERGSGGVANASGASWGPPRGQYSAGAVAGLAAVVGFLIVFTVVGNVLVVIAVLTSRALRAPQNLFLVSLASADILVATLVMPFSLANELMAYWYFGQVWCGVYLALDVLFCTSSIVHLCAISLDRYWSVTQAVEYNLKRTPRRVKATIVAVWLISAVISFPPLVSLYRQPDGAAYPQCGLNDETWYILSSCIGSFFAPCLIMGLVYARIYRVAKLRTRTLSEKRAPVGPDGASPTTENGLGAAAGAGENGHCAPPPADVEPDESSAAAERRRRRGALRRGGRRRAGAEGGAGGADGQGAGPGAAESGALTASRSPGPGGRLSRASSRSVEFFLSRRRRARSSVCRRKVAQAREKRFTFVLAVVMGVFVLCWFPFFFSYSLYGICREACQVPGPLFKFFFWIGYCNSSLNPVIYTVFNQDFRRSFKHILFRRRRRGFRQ
T10 sequence (P34972 whole entry): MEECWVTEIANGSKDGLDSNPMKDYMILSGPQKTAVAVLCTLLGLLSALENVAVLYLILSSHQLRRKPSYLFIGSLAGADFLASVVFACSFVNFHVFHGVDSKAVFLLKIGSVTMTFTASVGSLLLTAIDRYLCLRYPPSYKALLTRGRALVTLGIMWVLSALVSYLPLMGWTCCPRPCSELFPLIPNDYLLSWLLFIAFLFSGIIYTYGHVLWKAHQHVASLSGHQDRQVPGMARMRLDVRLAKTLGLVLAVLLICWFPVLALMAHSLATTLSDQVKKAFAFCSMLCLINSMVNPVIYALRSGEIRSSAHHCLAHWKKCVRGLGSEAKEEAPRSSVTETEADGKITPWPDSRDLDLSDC
T12 sequence (P28566 whole entry): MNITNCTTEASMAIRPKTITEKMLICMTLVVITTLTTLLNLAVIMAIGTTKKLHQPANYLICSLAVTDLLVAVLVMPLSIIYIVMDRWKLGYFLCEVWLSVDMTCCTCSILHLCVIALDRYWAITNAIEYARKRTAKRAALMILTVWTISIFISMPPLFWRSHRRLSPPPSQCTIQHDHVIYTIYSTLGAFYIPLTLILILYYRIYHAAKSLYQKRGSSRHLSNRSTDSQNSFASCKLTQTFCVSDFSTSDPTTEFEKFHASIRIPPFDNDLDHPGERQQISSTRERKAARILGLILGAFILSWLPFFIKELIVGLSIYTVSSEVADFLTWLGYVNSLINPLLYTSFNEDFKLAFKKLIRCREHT

SMILES: OCCc1cc(-c2cncc(OC[C@@H]3CCN3)c2)on1 [LF-3-88, 2-[5-[5-(2(S)-azetidinylmethoxyl)-3-pyridyl]-3-isoxazolyl]ethanol]
- Inhibition (primary binding competition efficacy), NMDA [1]: -4.7%
- inhibition at 10 µM (5-HT3): -1%
- agonist activity at α7-nAChRs (whole-cell) (human α7-nAChRs): no agonist activity
- effect of coapplication with choline at α7-nAChRs (whole-cell) (human α7-nAChRs; 10 mmol/L choline): no effect
- inhibition of activation by 10 mmol/L choline at α7-nAChRs (whole-cell) (human α7-nAChRs; 2-min pretreatment): slightly inhibit; also recorded: only weakly
- inhibition at 10 µM (H2 histamine receptor): 39.5%
- inhibition at 10 µM (5-HT5A): 13.2%
- inhibition at 10 µM (MOR: Mu Opioid Receptor): 5.7%
- CYP3A Inhibition (CYP3A): 1%
- inhibition at 10 µM (α2C adrenergic receptor): 17.2%
- Remaining (metabolic stability) [2]: 91%
- viability at 0.0001 M ([3]; strain TA100 – S9, 1.0E-04 M): 139%
- viability at 10 µM ([3]; strain TA100 – S9, 1.0E-05 M): 103%
- viability at 1.25 µM ([3]; strain TA100 – S9, 1.25E-06 M): 102%
- viability at 25 µM ([3]; strain TA100 – S9, 2.5E-05 M): 115%
- viability at 2.5 µM ([3]; strain TA100 – S9, 2.5E-06 M): 99%
- viability at 50 µM ([3]; strain TA100 – S9, 5.0E-05 M): 125%
- viability at 5 µM ([3]; strain TA100 – S9, 5.0E-06 M): 103%
- viability at 625 nM ([3]; strain TA100 – S9, 6.25E-07 M): 101%
- inhibition at 10 µM (5-HT2C): 22.7%
- inhibition at 10 µM (β2 adrenergic receptor): 6.8%
- inhibition at 10 µM (D4 dopamine receptor): -2.5%
- Inhibition (primary binding competition efficacy), σ 2 (σ 2 sigma receptor): 11.5%
- inhibition at 10 µM (CB2): -7.3%
- inhibition at 10 µM (5-HT4): 3.7%
- inhibition at 10 µM (5-HT1E): -3%
- viability at 0.0001 M ([4]; strain TA1535 – S9, 1.0E-04 M): 117%
- viability at 10 µM ([4]; strain TA1535 – S9, 1.0E-05 M): 97%
- viability at 1.25 µM ([4]; strain TA1535 – S9, 1.25E-06 M): 105%
- viability at 25 µM ([4]; strain TA1535 – S9, 2.5E-05 M): 104%
- viability at 2.5 µM ([4]; strain TA1535 – S9, 2.5E-06 M): 102%
- viability at 50 µM ([4]; strain TA1535 – S9, 5.0E-05 M): 109%
- viability at 5 µM ([4]; strain TA1535 – S9, 5.0E-06 M): 100%
- viability at 625 nM ([4]; strain TA1535 – S9, 6.25E-07 M): 99%
